Reference: patent publication US20230158108A1 (priority 2020, published 2023)
“Also recorded” adds a separate entry of the source. Where two headings read alike, the source gives them in different places.

Columns and labels:
[1] = test system: PMNs isolated from COVID-19 patients; assay: poly (I:C)-induced NETosis in PMNs from COVID-19 patients; format: cell-based, human; details: poly (I:C) 1 μg/mL, 2 hours
[2] = test system: PMNs isolated from healthy adults; assay: poly (I:C)-induced NETosis in PMNs from healthy adults; format: cell-based, human; details: poly (I:C) 1 μg/mL, 2 hours
experimental sepsis = details: models of experimental sepsis; cited from earlier work
healthy neutrophils = format: cell-based, human; details: healthy neutrophils pretreated
[3] = test system: PMNs isolated from healthy adults; assay: NET formation in healthy adult PMNs induced by COVID-19 patient plasma (confocal microscopy, cell-free DNA fluorescence assay); format: cell-based, human; details: peptide 1 nM, 1-hour preincubation, undiluted COVID-19 plasma 2 hours
[4] = test system: LPS-induced acute lung inflammation; format: in vivo; details: LPS-induced acute lung inflammation model; nNIF given IP
Description: Thus, nNIF can reduce NETs similar to an FDA approved drug, such as dexamethasone.

In the case of poly (I:C), the “Increase in NETosis compared to elevated baseline levels” value [1] is reported as 2 fold and the “NETosis induction in vitro” value [2] is reported as “induces NETosis”.

For “KAVLTIDEKGTEAAGAMFLEAIPMSIPPEVKFNKPFVFLMIEQNTKSPLFMGKVVNPTQK (listed as Homo sapiens) [nNIF]”, the Disease severity (experimental sepsis) is given as “decreased disease severity”, the NETosis (experimental sepsis) is given as “decrease in NETosis” and the Survival (experimental sepsis) is given as “improved survival”. For the same substance, the “Inhibition of COVID-19 plasma induced NETosis” value (healthy neutrophils; high-inducing pooled plasma (>3-fold induction)) was “clearly observed”, the “Inhibition of COVID-19 plasma induced NETosis” value (healthy neutrophils; medium-inducing pooled plasma (2-3 fold induction)) was “clearly observed” and the “NETosis induced in vitro by COVID-19 plasma” value [3] was “significantly decreases NETosis; also recorded: inhibits NETs induced by COVID-19 plasma”. For the same substance, the “In vivo efficacy: NETs or cells undergoing early NETosis (cytospin)” value [4] was “very good efficacy”.
